Reference: ChEMBL document CHEMBL5528053, “Discovery of Novel Isoquinoline Analogues as Dual Tubulin Polymerization/V-ATPase Inhibitors with Immunogenic Cell Death Induction” (J Med Chem, 2024)
Active and inactive are the calls of the source. The calls are words filed in the database; no cut-off is given here.

What was measured:
Tubulin (Homo sapiens) [1] = molecular target: T1, Tubulin (Homo sapiens) (UniProt P68371+Q9H4B7+P0DPH7+P68366+Q13509+Q71U36+P04350+Q3ZCM7+P07437+P68363+Q9BQE3+Q6PEY2+Q13885+Q9BVA1+Q9BUF5); experiment: Inhibition of tubulin polymerization (unknown origin) assessed as reduction in intracellular AC-alpha-tubulin at 50 to 200 nM measured for 6 hrs by […] Western blot analysis; type: cell-based; conditions: PC-3, dose 50-200 nM
[2] = Binding affinity to porcine brain tubulin polymerization assessed as dissociation constant measured after 20 mins by fluorescence based analysis; type: tissue-based, Sus scrofa
Tubulin (Homo sapiens) [3] = molecular target: T1, Tubulin (Homo sapiens); experiment: (§1) Inhibition of tubulin polymerization (unknown origin) measured every 60 secs for 60 mins by microplate reader based analysis; type: protein-complex assay; conditions: dose 1.25-40 µM
Tubulin = experiment: as §1; type: protein-complex assay, Homo sapiens
Tubulin (Homo sapiens) [4] = molecular target: T1, Tubulin (Homo sapiens); experiment: Disruption of microtubule network in human PC-3 cells at 50 to 200 nM incubated for 6 to 24 hrs by immunofluorescence staining based confocal microscopy analysis relative to control; type: cell-based; conditions: dose 50-200 nM, time 6-24 hrs
PC-3 [5] = experiment: Inhibition of V-ATPase activity in human PC-3 cells at 50 nM measured after 24 hrs by colorimetric assay relative to control; type: cell-based
PC-3 [6] = experiment: Inhibition of V-ATPase activity in human PC-3 cells at 200 nM measured after 24 hrs by colorimetric assay relative to control; type: cell-based
PC-3 [7] = experiment: Inhibition of V-ATPase activity in human PC-3 cells at 400 nM measured after 24 hrs by colorimetric assay relative to control; type: cell-based
PC-3 [8] = experiment: Induction of cell cycle arrest in human PC-3 cells assessed as accumulation of cells at S phase at 200 nM incubated for 24 hrs by flow cytometry analysis (reference value: 31.3%); type: functional
PC-3 [9] = experiment: Induction of cell cycle arrest in human PC-3 cells assessed as accumulation of cells at G2/M phase at 100 nM incubated for 24 hrs by flow cytometry analysis (reference value: 19.5%); type: functional
PC-3 [10] = experiment: Induction of cell cycle arrest in human PC-3 cells assessed as reduction in CDC2 phosphorylation at Thr161 residue at 50 to 200 nM incubated for 24 hrs by DAPI staining based analysis; type: functional; conditions: dose 50-200 nM
PC-3 [11] = experiment: Induction of cell cycle arrest in human PC-3 cells assessed as reduction in cyclin B1 at 50 to 200 nM incubated for 24 hrs by DAPI staining based analysis; type: functional; conditions: dose 50-200 nM
PC-3 [12] = experiment: Induction of intracellular ROS generation in human PC-3 cells incubated for 24 hrs by DCFH-DA staining based confocal microscopy based analysis; type: functional, cell-based; conditions: dose 50-200 nM
PC-3 [13] = experiment: Induction of apoptosis in human PC-3 cells measured after 24 hrs by annexin V-FITC and PI staining based flow cytometry analysis; type: functional, cell-based; conditions: dose 50-200 nM
PC-3 [14] = experiment: Induction of apoptosis in human PC-3 cells assessed as viable cells at 100 nM measured after 24 hrs by annexin V-FITC and PI staining based flow cytometry analysis (reference value: 90.6%); type: functional; conditions: read-out: Activity
PC-3 [15] = experiment: Induction of apoptosis in human PC-3 cells assessed as early apoptotic cells at 100 nM measured after 24 hrs by annexin V-FITC and PI staining based flow cytometry analysis (reference value: 1.03%); type: functional
PC-3 [16] = experiment: Induction of apoptosis in human PC-3 cells assessed as late apoptotic cells at 50 nM measured after 24 hrs by annexin V-FITC and PI staining based flow cytometry analysis (reference value: 2.37%); type: functional
PC-3 [17] = experiment: Induction of apoptosis in human PC-3 cells assessed as late apoptotic cells at 100 nM measured after 24 hrs by annexin V-FITC and PI staining based flow cytometry analysis (reference value: 2.37%); type: functional
PC-3 [18] = experiment: Induction of apoptosis in human PC-3 cells assessed as necrotic cells at 50 nM measured after 24 hrs by annexin V-FITC and PI staining based flow cytometry analysis (reference value: 6.01%); type: functional
PC-3 [19] = experiment: Induction of apoptosis in human PC-3 cells assessed as necrotic cells at 200 nM measured after 24 hrs by annexin V-FITC and PI staining based flow cytometry analysis (reference value: 6.01%); type: functional
PC-3 [20] = experiment: Induction of apoptosis in human PC-3 cells assessed as increase in p-bim-EL level at 50 to 200 nM incubated for 24 hrs by Western blot analysis; type: functional, cell-based; conditions: dose 50-200 nM
HUVEC = experiment: Disruption of vasculature in HUVEC cells assessed as interruption of tubelike network formation incubated for 6 hrs by inverted fluorescence microscope analysis; type: functional, cell-based; conditions: Homo sapiens, dose 50-200 nM
[21] = Toxicity in ICR mouse assessed as effect on BUN level at 10 mg/kg, ip measured for 14 days; type: organism-based; conditions: in vivo, 336 h, time 14 day
[22] = Toxicity in ICR mouse assessed as effect on LDH level at 10 mg/kg, ip measured for 14 days; type: organism-based; conditions: in vivo, 336 h, time 14 day
[23] = Toxicity in ICR mouse assessed as effect on CRE level at 10 mg/kg, ip measured for 14 days; type: organism-based; conditions: in vivo, 336 h, time 14 day
[24] = Toxicity in ICR mouse assessed as effect on ALT level at 10 mg/kg, ip measured for 14 days; type: organism-based; conditions: in vivo, 336 h, time 14 day
[25] = Toxicity in ICR mouse assessed as effect on heart at 10 mg/kg, ip measured for 14 days by H and E staining based analysis; type: organism-based; conditions: in vivo, 336 h, time 14 day
PC-3 [26] = experiment: Upregulation of intracellular eIF2alpha expression at […] residues in human PC-3 cells incubated for 24 hrs by DAPI staining based analysis; type: functional, cell-based; conditions: dose 50-200 nM
PC-3 [27] = experiment: Induction of immunogenic cell death in human PC-3 cells assessed as effect on CRT expression at 50 to 200 nM; type: functional, cell-based; conditions: dose 50-200 nM
PC-3 [28] = experiment: Induction of immunogenic cell death in human PC-3 cells assessed as increase in CRT translocation to cell surface at 200 nM measured after 12 hrs in presence of TUDCA by DAPI staining based analysis; type: functional
[29] = Antitumor activity against mouse RM1 cells homografted in C57BL/6 mouse model assessed as tumor growth inhibition at 5 mg/kg, iv administered every two days for 14 days by vernier caliper based analysis relative to control; type: functional; conditions: RM1, 336 h, time 14 day, read-out: TGI
[30] = Antitumor activity against mouse RM1 cells homografted in C57BL/6 mouse model assessed as tumor growth inhibition at 10 mg/kg, iv administered every two days for 14 days by vernier caliper based analysis relative to control; type: functional; conditions: RM1, 336 h, time 14 day, read-out: TGI
[31] = Antitumor immunity against mouse RM1 cells homografted in C57BL/6 mouse model assessed as increase in tumor infiltrating helper T lymphocytes at 5 mg/kg, iv administered every two days for 14 days by flow cytometry analysis (reference value: 6.59%); type: functional; conditions: time 14 day
[32] = Antitumor immunity against mouse RM1 cells homografted in C57BL/6 mouse model assessed as increase in tumor infiltrating helper T lymphocytes at 10 mg/kg, iv administered every two days for 14 days by flow cytometry analysis (reference value: 6.59%); type: functional; conditions: time 14 day
RM1 = experiment: Antitumor immunity against mouse RM1 cells homografted in C57BL/6 mouse model assessed as increase in tumor infiltrating CD3+CD8+T cells (CTLs) in spleen at 5 to 10 mg/kg, iv administered every two days for 14 days by flow cytometry analysis; type: functional, organism-based; conditions: dose 5-10 mg/kg, time 14.0 day

## COc1cc(-c2nc(C(N)=O)cc3cc4c(cc23)OCCO4)cc(Br)c1OC
Tubulin (Homo sapiens) [1]
  inhibition: Active
[2]
  Kd: 6.56 µM
Tubulin (Homo sapiens) [3]
  inhibition: Dose-Dependent Effect
Tubulin
  IC50: 6.33 µM
Tubulin (Homo sapiens) [4]
  Activity: Active
PC-3 [5]
  inhibition: 15.8%
PC-3 [6]
  inhibition: 36.7%
PC-3 [7]
  inhibition: 60%
PC-3 [8]
  Activity: 17.1%
PC-3 [9]
  Activity: 42.8%
PC-3 [10]
  Activity: Active
PC-3 [11]
  Activity: Active
PC-3 [12]
  Activity: Dose-Dependent Effect
PC-3 [13]
  Activity: Dose-Dependent Effect
PC-3 [14]
  viability at 0.1 µM: 61.7%
PC-3 [15]
  Activity: 21.6%
PC-3 [16]
  Activity: 3.51%
PC-3 [17]
  Activity: 10.3%
PC-3 [18]
  Activity: 6.91%
PC-3 [19]
  Activity: 6.91%
PC-3 [20]
  Activity: Active
HUVEC
  Activity: Active
[21]
  Activity: Non-Toxic
[22]
  Activity: Non-Toxic
[23]
  Activity: Non-Toxic
[24]
  Activity: Non-Toxic
[25]
  Activity: Non-Toxic
PC-3 [26]
  Activity: Dose-Dependent Effect
PC-3 [27]
  Activity: Active
PC-3 [28]
  Activity: inactive
[29]
  inhibition in vivo at 5 mg/kg: 61.6%
[30]
  inhibition in vivo at 10 mg/kg: 70.2%
[31]
  Activity: 10.9%
[32]
  Activity: 14.2%
RM1
  Activity: Active
